Assay results: US7722863B2, “Use of granzyme b as an hsp70/hsp70 peptide dependent inducer of apoptosis in tumor cells” (Multimmune GmbH, priority 2002, dated 2010)
“And” between values parts separate entries of the source, which are not always exact repeats. Identical values can stand only once.

Columns and labels:
CX− tumor cells [1] = assay: DAPI staining of nuclear DNA fragmentation; format: cell-based, human; conditions: 24 h, camptothecin 4 μg/ml or granzyme B 6 ng/ml
Protocol: (§1) DAPI-staining: Methanol/aceton fixed cells (0.1×10^6 cells/100 μl) were incubated with 0.5 μg/μl 4,6-diamino-2-phenylindole (DAPI) in PBS/glycerol (3:1), for 15 min in the dark. Following washing in PBS the cells were mounted with Fluorescent Mounting Medium (Dako, Glostrup, Denmark) and than analysed for fluorescence using a Zeiss model Axioscop 2 scanning microscope (Zeiss Jena, Germany) equipped with a 40× objective and standard filters. Apoptosis was visualized with DAPI-staining in 50 cells, each. Images were treated by multiplicative shading correction using software Axiovision (Zeiss Vision Jena, Germany).

Colo+ tumor cells = assay: DAPI staining of nuclear DNA fragmentation; format: cell-based, human; conditions: 24 h, camptothecin 4 μg/ml or granzyme B 6 ng/ml
Protocol: as §1

CX+ tumor cells [2] = assay: DAPI staining of nuclear DNA fragmentation; format: cell-based, human; conditions: 24 h, camptothecin 4 μg/ml or granzyme B 6 ng/ml
Protocol: as §1

Colo− tumor cells = assay: DAPI staining of nuclear DNA fragmentation; format: cell-based, human; conditions: 24 h, camptothecin 4 μg/ml or granzyme B 6 ng/ml
Protocol: as §1

CX− tumor cells [3] = assay: Cytochrome c release, quantitative immunoassay; format: cell-based, human; conditions: camptothecin 4 μg/ml or granzyme B 6 ng/ml, 24 h
Protocol: (§2) Cytochrome c release: Cytochrome c release was determined using a quantitative immunoassay; (DCDCO, R&D Systems, Wiesbaden, Germany). Briefly, either untreated, camptothecin (4 μg/ml) or granzyme B (6 ng/ml) treated CX+ and CX− cells (1.5×10^6/ml) were washed in PBS and treated with lysis buffer for 1 h at room temperature. Following centrifugation at 1,000 g for 15 min supernatants were removed and 200 μl of a 1:100, 1:250, and a 1:500 dilution was used for a sandwich ELISA. Following incubation with substrate solution in the dark for 30 min the reaction was stopped. The optical density of each well was determined on an ELISA reader at 450 nm. The amount of cytochrome c was determined according to a calibration curve.
(§3) As an additional test for apoptotic cell death, cytochrome c release was measured following incubation of CX+ and CX− cells with granzyme B for 24 h. As summarized in Table I, following incubation with granzyme B (6 ng/ml) for 24 h, cytochrome c concentration was elevated from 0.382 mg/ml to 0.690 mg/ml (1.8-fold) in CX+ cells. […] It was propose that the trigger of apoptosis by granzyme B is mediated via the extracellular exposed Hsp70 epitope TKD.

CX+ tumor cells [4] = assay: Cytochrome c release, quantitative immunoassay; format: cell-based, human; conditions: camptothecin 4 μg/ml or granzyme B 6 ng/ml, 24 h
Protocol: as §2, §3

Hsp70-peptide TKD = target: T1, Hsp70-peptide TKD (Homo sapiens, UniProt P0DMV8); assay: Affinity chromatography of YT cell lysate, Western blot of eluates; format: binding; conditions: Western blot with mAb 2C5, fraction F3
T1 construct: Hsp70-peptide TKD (TKDNNLLGRFELSG (SEO ID NO:1), aa450-463, Bachem, Bubendorf, Switzerland); purchased Bachem
Protocol: (§4) Bovine serum albumine (BSA, 1 mg/ml, Sigma-Aldrich, Steinheim, Germany), 1 mg/ml lyophylized, recombinant human Hsp70-protein (Stressgen, British Columbia, Canada) or 2 mg/mi Hsp70-peptide TKD (TKDNNLLGRFELSG (SEO ID NO:1), aa450-463, Bachem, Bubendorf, Switzerland) were incubated with equilibrated AminoLink agarose beads (Pierce, Rockford, USA) in 2 ml for 6 h, together with the reductant NaCNBH3. Binding capacity of BSA, Hsp70-protein and Hsp70-peptide TKD was greater 95%. Following removal of uncoupled material by extensive washing with Tris-buffer and quenching of non-reactive groups, cell lysates were administered to the BSA, Hsp70-protein and Hsp70-peptide TKD conjugated columns for 1 h.
(§5) After washing with 10 column volumes of 20 mM Tris buffer, bound proteins were eluted with 3 M sodium chloride in 20 mM Tris buffer, in 5 fractions. Each fraction was subjected to a 10% SDS-PAGE and blotted to PVDF membranes.
(§6) Following blocking in skim-milk (0.1%) and incubation with mAb directed against granzyme B 2C5 (IgG2a, Becton Dickinson, Heidelberg, Germany), at 4° C., for 5 h, Western blots were washed and incubated with a secondary mouse anti-IgG HRP Ab (Dianova, Hamburg, Germany), for 1 h. Proteins were detected using the ECL kit (Amersham Bioscience) for 5 sec. […]

[5] = target: T2, recombinant human Hsp70-protein (Homo sapiens, UniProt P0DMV8); assay: as above; format: binding; conditions: Western blot with mAb 2C5, fraction F3
T2 construct: purchased Stressgen
Protocol: as §4, §5, §6

T2 sequence (P0DMV8 whole entry): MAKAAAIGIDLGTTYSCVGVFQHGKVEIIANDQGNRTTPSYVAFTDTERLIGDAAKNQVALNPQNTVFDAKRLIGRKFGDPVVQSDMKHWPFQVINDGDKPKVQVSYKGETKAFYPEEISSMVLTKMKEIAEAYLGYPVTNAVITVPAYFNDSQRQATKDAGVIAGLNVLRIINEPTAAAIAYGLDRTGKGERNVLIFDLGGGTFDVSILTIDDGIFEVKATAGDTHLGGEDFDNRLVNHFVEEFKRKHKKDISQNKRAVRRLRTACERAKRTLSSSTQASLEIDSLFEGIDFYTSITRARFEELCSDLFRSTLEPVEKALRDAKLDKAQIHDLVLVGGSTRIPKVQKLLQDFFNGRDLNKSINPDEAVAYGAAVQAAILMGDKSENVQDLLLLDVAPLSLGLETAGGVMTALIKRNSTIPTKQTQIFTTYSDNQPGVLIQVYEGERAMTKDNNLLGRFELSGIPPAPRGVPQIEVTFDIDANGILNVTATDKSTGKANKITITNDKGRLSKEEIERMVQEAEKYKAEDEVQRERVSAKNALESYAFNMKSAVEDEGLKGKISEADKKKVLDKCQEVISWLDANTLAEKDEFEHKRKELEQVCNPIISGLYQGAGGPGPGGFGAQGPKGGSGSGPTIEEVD

granzyme B in YT cell eluates from Hsp70-peptide (TKD) column (Hsp70-peptide TKD): dominant 32 kDa granzyme B protein band | granzyme B in YT cell eluates from Hsp70-protein column [5]: dominant 32 kDa granzyme B protein band
Substance: granzyme B
nuclear DNA fragmentation (DAPI) (CX− tumor cells [1]): no DNA fragmentation was observed | nuclear DNA fragmentation (DAPI) (Colo+ tumor cells): DNA fragmentation was detected | nuclear DNA fragmentation (DAPI) (CX+ tumor cells [2]): DNA fragmentation was detected | nuclear DNA fragmentation (DAPI) (Colo− tumor cells): no DNA fragmentation was observed | cytochrome c fold increase (CX− tumor cells [3]; control 1.0): 0.9 fold | cytochrome c (CX− tumor cells [3]; mean of 4 experiments ± S.E., control 0.452 ± 0.02): 0.425 mg/mL and 0.425 ± 0.075 mg/mL | cytochrome c fold increase (CX+ tumor cells [4]; control 1.0): 1.8 fold | cytochrome c (CX+ tumor cells [4]; mean of 4 experiments ± S.E., control 0.382 ± 0.02): 0.690 mg/mL and 0.690 ± 0.08 mg/mL
